These results are taken from patent publication US8258309B2, “Azapeptide derivatives” (priority 2007, dated 2012).

Data set [1] is described as follows: Microsomal assay: stability in human liver microsomes. It counts as in vitro ADME. The following applies: for half-life at 1 μM: liver microsomes; for half-life as compared to atazanavir: human liver microsomes, first run. Here is the method: Microsomal Assay. Human liver microsomes (20 mg/mL, pool of 50 individuals) were obtained from Xenotech LLC (Lenexa, Kans.). The incubation mixtures are prepared as follows. Stock solutions (10 mM) solutions of test Compounds 103, 106, 122 and of atazanavir were prepared in DMSO. The 10 mM stock solutions were diluted to 1 mM in acetonitrile (ACN). […] The microsome-test compound mixtures were added to wells of a 2 mL 96-well deep well polypropylene plate in triplicate. The plate was warmed to 37° C. before initiating the reactions by addition of prewarmed NADPH in 0.1 M potassium phosphate buffer, pH 7.4, containing 3 mM MgCl2. The final reaction mixture composition contained: • Liver Microsomes 0.5 mg/mL • NADPH 2 mM • Potassium Phosphate, pH 7.4 100 mM • Magnesium Chloride 3 mM • Test Compound 1.0 μM. The reaction mixtures were incubated at 37° C. and 50 μL aliquots were removed at 0, 3, 7, 12, 20, and 30 minutes and added to shallow-well 96-well plates which contained 50 μL of ice-cold ACN with internal standard to stop the reactions. The plates were stored at −20° C. for 30 minutes, after which 100 μL of water was added to the wells of the plate before centrifugation to pellet precipitated proteins. Supernatants were transferred to another 96-well plate and analyzed for amounts of parent remaining by LC-MS/MS using an Applied Biosystems API 4000 mass spectrometer. […] Data analysis was performed using Microsoft Excel Software. […] The results are shown in FIGS. 2 and 3 and in Table 3, below: […]

Data set [2] concerns HIV-1RF. In words: HIV anti-viral activity in CEM-SS cells infected with HIV-1 (XTT). It counts as cell-based. Here is the method: The HIV antiviral activity of compound of the present invention was tested in CEM-SS cells infected with HIV-1. CEM-SS cells were passaged in T-75 flasks in RPMI 1640 medium supplemented with 10% heat inactivated fetal bovine serum, 2 mmol/L L-glutamine, 100 U/mL penicillin and 100 flg/mL streptomycin prior to use in the antiviral assay. On the day preceding the assay, the cells were split 1:2 to assure they were in an exponential growth phase at the time of infection. Total cell and viability quantification was performed using a hemocytometer and Trypan Blue dye exclusion. Cell viability was greater than 95% for the cells to be utilized in the assay. The cells were resuspended at 5×10^4 cells per mL in tissue culture medium and added to the drug-containing microtiter plates in a volume of 50 μL.
The virus used for the assay was the lymphocyte-tropic virus strain HIV-IRF. The virus was obtained from the NIH AIDS Research and Reference Reagent Program and stock virus pools were produced in CEM-SS cells. A pre-titered aliquot of virus was removed from the freezer (−80° C.) and allowed to thaw slowly to room temperature in a biological safety cabinet. Virus was resuspended and diluted into tissue culture medium such that the amount of virus added to each well in a volume of 50 μL was the amount determined to yield 85 to 95% cell killing at 6 days post-infection.
Each plate contains cell control wells (cells only), virus control wells (cells plus virus), compound toxicity wells (cells plus compound only), compound colorimetric control wells (compound only) as well as experimental wells (compound plus cells plus virus). Samples were tested in triplicate with eleven half-log dilutions per compound starting at 0.1 μM of compound. Compounds 104, 120 and 122 were tested, as was atazanavir and AZT. […]
Following incubation at 37° C. in a 5% CO2 incubator, the test plates were stained with the tetrazolium dye XTT (2,3-bis(2-methoxy-4-nitro-5sulfophenyl)-5-[(phenylamino)carbonyl]-2H-tetrazolium hydroxide). XTT-tetrazolium was metabolized by the mitochondrial enzymes of metabolically active cells to a soluble formazan product, allowing rapid quantitative analysis of the inhibition of HIV induced cell killing by anti-HIV test substances. XTT solution was prepared daily as a stock of 1 mg/mL in RPMI 1640. Phenazine methosulfate (PMS) solution was prepared at 0.15 mg/mL in PBS and stored in the dark at −20° C. XTT/PMS stock was prepared immediately before use by adding 40 μL of PMS per mL of XTT solution. Fifty microliters of XTT/PMS was added to each well of the plate and the plate was reincubated for 4 hours at 37° C. Plates were sealed with adhesive plate sealers and shaken gently or inverted several times to mix the soluble formazan product and the plate was read spectrophotometrically at 450/650 nm with a Molecular Devices Vmax plate reader.
Raw data was collected from the Softmax Pro 4.6 software and imported into a Microsoft Excel 2003 spreadsheet for analysis by linear curve fit calculations.

The mark [3] stands for this setting: human, pH 7.4, human liver microsomes, repeated assay (Table 3), read-out: t1/2 (min) Avg ± SD (n = 3).
[4] abbreviates: human, pH 7.4, human liver microsomes 0.5 mg/mL, 1.0 μM test compound, first run (Table 2), read-out: T1/2 ± SD.
Where [5] appears, read: No Serum Protein Added (cell culture medium).

Where two headings read alike, the source gives them in different places. A value given as a limit tells only on which side of the number the result lay.

Turning to `[2H]C([2H])([2H])OC(=O)N[C@H](C(=O)N[C@@H](Cc1ccccc1)[C@@H](O)CN(Cc1ccc(-c2ccccn2)cc1)NC(=O)[C@@H](NC(=O)OC([2H])([2H])[2H])C(C([2H])([2H])[2H])(C([2H])([2H])[2H])C([2H])([2H])[2H])C(C)(C)C` [Compound 121, 1,14-Di(methyl-d3)(3S,8S,9S,12S)-3-[(1,1-dimethylethyl)-d9]-12-(1,1-dimethylethyl)-8-hydroxy-4,11-dioxo-9-(phenylmethyl)-6-[[4-(2-pyridinyl)phenyl]methyl]-2,5,6,10,13-pentaazatetradecanedioate], in data set [1] (setting [3]), the half-life at 1 μM is 18.8 ± 1.5 min.
The same measure, in the same setting: with `[2H]C([2H])([2H])OC(=O)N[C@H](C(=O)N[C@@H](Cc1ccccc1)[C@@H](O)CN(NC(=O)[C@@H](NC(=O)OC([2H])([2H])[2H])C(C([2H])([2H])[2H])(C([2H])([2H])[2H])C([2H])([2H])[2H])C([2H])([2H])c1ccc(-c2ccccn2)cc1)C(C([2H])([2H])[2H])(C([2H])([2H])[2H])C([2H])([2H])[2H]` [Compound 131, 1,14-Di(methyl-d3)(3S,8S,9S,12S)-3,12-bis[(1,1-dimethylethyl)-d9]-8-hydroxy-4,11-dioxo-9-(phenylmethyl)-6-[[4-(2-pyridinyl)phenyl]methyl-d2]-2,5,6,10,13-pentaazatetradecanedioate] the figure was 30.9 ± 1.4 min.
For the compound `[2H]C([2H])([2H])OC(=O)N[C@H](C(=O)N[C@@H](Cc1ccccc1)[C@@H](O)CN(Cc1ccc(-c2ccccn2)cc1)NC(=O)[C@@H](NC(=O)OC([2H])([2H])[2H])C(C)(C)C)C(C)(C)C` [Compound 103, 1,14-Di(methyl-d3)(3S,8S,9S,12S)-3,12-bis(1,1-dimethylethyl)-8-hydroxy-4,11-dioxo-9-(phenylmethyl)-6-[[4-(2-pyridinyl)phenyl]methyl]-2,5,6,10,13-pentaazatetradecanedioate], the “half-life as compared to atazanavir” value in data set [1] is listed as “increased half-life”. Further, the “% change in t1/2” value in data set [1] (human, 1 μM, pH 7.4) is −9%. The half-life at 1 μM in data set [1] (setting [4]) was 20.2 ± 4.22 min; in data set [1] (setting [3]) it was 17.2 ± 0.9 min.
For `[2H]C([2H])([2H])OC(=O)N[C@H](C(=O)N[C@@H](Cc1ccccc1)[C@@H](O)CN(NC(=O)[C@@H](NC(=O)OC)C(C)(C)C)C([2H])([2H])c1ccc(-c2ccccn2)cc1)C(C([2H])([2H])[2H])(C([2H])([2H])[2H])C([2H])([2H])[2H]` [Compound 123, 1-Methyl-14-(methyl-d3)(3S,8S,9S,12S)-3-(1,1-dimethylethyl)-12-[(1,1-dimethylethyl)-d9]-8-hydroxy-4,11-dioxo-9-(phenylmethyl)-6-[[4-(2-pyridinyl)phenyl]methyl-2]-2,5,6,10,13-pentaazatetradecanedioate], in data set [1] (setting [3]), the half-life at 1 μM came out at 23.9 ± 0.8 min.
Take `[2H]C([2H])([2H])C([C@H](NC(=O)OC)C(=O)N[C@@H](Cc1ccccc1)[C@@H](O)CN(Cc1ccc(-c2ccccn2)cc1)NC(=O)[C@@H](NC(=O)OC)C(C([2H])([2H])[2H])(C([2H])([2H])[2H])C([2H])([2H])[2H])(C([2H])([2H])[2H])C([2H])([2H])[2H]` [Compound 106, 1,14-Dimethyl(3S,8S,9S,12S)-3,12-bis[(1,1-dimethylethyl)-d9]-8-hydroxy-4,11-dioxo-9-(phenylmethyl)-6-[[4-(2-pyridinyl)phenyl]methyl]-2,5,6,10,13-pentaazatetradecanedioate]: in data set [1], the “half-life as compared to atazanavir” value is reported as “increased half-life”. Also, the “increase in half-life as compared to atazanavir” value in data set [1] (human, 1 μM, pH 7.4) was “approximately 40%”. For the same compound, the half-life at 1 μM in data set [1] (setting [4]) was 26.1 ± 0.99 min; in data set [1] (setting [3]), 25.6 ± 0.6 min.
As for “1,14-Dimethyl(3S,8S,9S,12S)-3-(1,1-dimethylethyl)-12-[(1,1-dimethylethyl)-d9]-8-hydroxy-4,11-dioxo-9-(phenylmethyl)-6-[[4-(2-pyridinyl)phenyl]methyl]-2,5,6,10,13-pentaazatetradecanedioate [Compound 104]”, the “fold increase of EC50 in the presence of AAGP” value in data set [2] (0.5 mg/mL AAGP versus cell culture medium) is listed as “greater than 7 fold”. In addition, in data set [2] (10 mg/mL HSA versus cell culture medium), the “fold less potent in the presence of HSA than in cell culture medium alone” value is recorded as “two- to greater than three-fold less potent”. For the same compound, the EC50 was 2 nM in data set [2] (+0.5 mg/mL AAGP), 0.9 nM in data set [2] (+10 mg/mL HAS), 4 nM in data set [2] (+AAGP + HSA) and less than 0.3 nM in data set [2] (setting [5]). Besides, in data set [2] (AAGP plus HSA versus cell culture medium), the “fold decrease of antiviral activity in the presence of AAGP plus HSA” value is reported as “greater than 13 fold”. In addition, in data set [1] (human, microsomes), the “t1/2 (min) Avg ± SD (n = 3)” value is reported as 23.3 ± 0.4 min.
`[2H]C([2H])(c1ccc(-c2ccccn2)cc1)N(C[C@H](O)[C@H](Cc1ccccc1)NC(=O)[C@@H](NC(=O)OC)C(C([2H])([2H])[2H])(C([2H])([2H])[2H])C([2H])([2H])[2H])NC(=O)[C@@H](NC(=O)OC)C(C)(C)C` [Compound 111, 1,14-Dimethyl(3S,8S,9S,12S)-3-(1,1-dimethylethyl)-12-[(1,1-dimethylethyl)-d9]-8-hydroxy-4,11-dioxo-9-(phenylmethyl)-6-[[4-(2-pyridinyl)phenyl]methyl-d2]2,5,6,10,13-pentaazatetradecanedioate]: the half-life at 1 μM in data set [1] (setting [3]) was 23.9 ± 0.3 min.
With `Cc1cn([C@H]2C[C@H](N=[N+]=[N-])[C@@H](CO)O2)c(=O)[nH]c1=O` [AZT, reference compound], the EC50 is 1 nM in data set [2] (+0.5 mg/mL AAGP), 2 nM in data set [2] (+10 mg/mL HAS), 2 nM in data set [2] (+AAGP + HSA) and 2 nM in data set [2] (setting [5]).
